Assay results reported in patent US8227601B2, “Diaryl-purines, azapurines and -deazapurines as non-nucleoside reverse transcriptase inhibitor for treatment of HIV” (priority 2005, dated 2012).
Like-named read-outs stand apart in the source and are kept apart here.

Legend:
Experiment in all cases: microbe, parasite or virus in culture
Assay type in all cases: cell-based, human immunodeficiency virus type 1 (HIV-1)
wild type HIV-1 = system: wild type HIV-1
HIV-1 Y181C = system: HIV-1 Y181C
HIV-1 Y188L = system: HIV-1 Y188L
HIV-1 L1001-K103N = system: HIV-1 L1001-K103N
[1] = Human immunodeficiency virus 1, Hela-JC53, read-out: EC50 WT (nM)
[2] = Human immunodeficiency virus 1, read-out: EC50 Y181C (nM), Y181C mutant
[3] = Human immunodeficiency virus 1, read-out: EC50 Y188L (nM)
[4] = Human immunodeficiency virus 1, read-out: EC50 L1001-K103N (nM), L1001-K103N mutant

SMILES	EC50 (wild type HIV-1; [1]) [nM]	EC50 (HIV-1 Y181C; [2]) [nM]	EC50 (HIV-1 Y188L; [3]) [nM]	EC50 (HIV-1 L1001-K103N; [4]) [nM]	EC50 (wild type HIV-1; read-out: EC50 WT, wild-type HIV-1) [nM]	EC50 (HIV-1 Y181C; read-out: EC50 Y181C, Y181C mutant) [nM]	EC50 (HIV-1 Y188L; read-out: EC50 Y188L, Y188L mutant) [nM]	EC50 (HIV-1 L1001-K103N; read-out: EC50 L1001-K103N, L1001-K103N mutant) [nM]
CCn1ccc2c(Oc3c(C)cc(C#N)cc3C)nc(Nc3ccc(C#N)cc3)nc21 [Cpd 26]	< 10	10 to 100	10 to 100	> 100				
Cc1cc(C2CC2)cc(Cl)c1Nc1nc(Nc2ccc(C#N)cc2)nc2[nH]cnc12 [Cpd 27]	< 10	10 to 100	10 to 100	10 to 100				
Cc1cc(C2CC2)cc(C)c1Nc1nc(Nc2ccc(C#N)cc2)nc2[nH]cnc12 [Cpd 28]	< 10	< 10	10 to 100	10 to 100				
N#Cc1ccc(Nc2nc(Nc3ccc4c(c3)CCC4)c3nc[nH]c3n2)cc1 [Cpd 29]	< 10	> 100	> 100	> 100				
Cc1ccc2cccc(Nc3nc(Nc4ccc(C#N)cc4)nc4[nH]cnc34)c2n1 [Cpd 30]	> 100	> 100	> 100	> 100				
Cc1cc(C)c(Oc2nc(Nc3ccc(C#N)cc3)nc3[nH]cnc23)c(C)c1 [Cpd 31]					< 10	10 to 100	< 10	10 to 100
Cc1ccc2ccccc2c1Nc1nc(Nc2ccc(C#N)cc2)nc2[nH]cnc12 [Cpd 32]	< 10	10 to 100	> 100	> 100				
Cc1cc(C2CC2)cc(C)c1Oc1nc(Nc2ccc(C#N)cc2)nc2[nH]ccc12 [Cpd 33]	< 10	10 to 100	10 to 100	10 to 100				
Cc1cc(C)c(Oc2nc(Nc3ccc(F)cc3)nc3[nH]cnc23)c(C)c1 [Cpd 34]	< 10	< 10	10 to 100	10 to 100				
COc1ccc(Nc2nc(Oc3c(C)cc(C)cc3C)c3nc[nH]c3n2)cc1 [Cpd 35]	< 10	10 to 100	> 100	> 100				
Cc1cc(C)c(Oc2nc(Nc3cccc(C#N)c3)nc3[nH]cnc23)c(C)c1 [Cpd 36]	< 10	10 to 100	> 100	> 100				
Cc1cc(C)c(Oc2nc(Nc3ccc(C#N)cc3)nc3cc[nH]c23)c(C)c1 [Cpd 37]	< 10	< 10	< 10	< 10				
Cc1cc(C)c(Oc2nc(Nc3ccc(C(F)(F)F)cc3)nc3[nH]cnc23)c(C)c1 [Cpd 38]	10 to 100	> 100	> 100	> 100				
Cc1cc(C)c(Oc2nc(Nc3cccc(C(F)(F)F)c3)nc3[nH]cnc23)c(C)c1 [Cpd 39]	> 100	> 100	> 100	> 100				
Cc1cc(C)c(Oc2nc(Nc3ccc(C#N)c(C(F)(F)F)c3)nc3[nH]cnc23)c(C)c1 [Cpd 40]	10 to 100	10 to 100	> 100	10 to 100				
Cc1cc(C#N)cc(C)c1Oc1nc(Nc2ccc(C#N)cc2)nc2ccn(Cc3ccccc3)c12 [Cpd 41]	< 10	< 10	10 to 100	10 to 100				
Cc1cc(C#N)cc(C)c1Oc1nc(Nc2ccc(C#N)cc2)nc2cc[nH]c12 [Cpd 42]	< 10	< 10	< 10	< 10				
CCCc1nn(C)c2c(Oc3c(C)cc(C)cc3C)nc(Nc3ccc(C#N)cc3)nc12 [Cpd 43]	10 to 100	10 to 100	> 100	10 to 100				
Cc1cc(C)c(Oc2nc(Nc3ccc(C4CC4)cc3)nc3[nH]cnc23)c(C)c1 [Cpd 44]	10 to 100	> 100	> 100	> 100				
Cc1cc(C)c(Oc2nc(Nc3ccc(C#N)cc3)nc3c2ncn3C)c(C)c1 [Cpd 45]	< 10	< 10	< 10	10 to 100				
CCN(c1ccc(C#N)cc1)c1nc(Oc2c(C)cc(C#N)cc2C)c2c(ccn2CC)n1 [Cpd 46]	> 100	> 100	> 100	> 100				
Cc1cc(C2CC2)cc(C)c1Oc1nc(Nc2ccc(C#N)cc2)nc2ccn(Cc3ccccc3)c12 [Cpd 47]	10 to 100	10 to 100	> 100	> 100				
Cc1cc(C)c(Sc2nc(Nc3ccc(C#N)cc3)nc3ccn(Cc4ccccc4)c23)c(C)c1 [Cpd 48]	10 to 100	10 to 100	> 100	> 100				
Cc1cc(C#N)cc(C)c1Oc1nc(Nc2ccc(C#N)cc2)nc2c(Cl)c[nH]c12 [Cpd 49]	< 10	< 10	< 10	< 10				
COc1cc(C)cc(OC)c1Oc1nc(Nc2ccc(C#N)cc2)nc2[nH]cnc12 [Cpd 50]	< 10	< 10	10 to 100	> 100				
